The results in this text go back to patent US20250025500A1, “PHOSPHATASE INHIBITORS AS NK CELLS MODULATORS FOR THE TREATMENT OF CANCER” (Kanyr Pharma Inc., priority 2021, published 2025).

What all share (assay type): cell-based, Human
The test system of assay [1] is NK-92 cells against K-562 cells. The assay is described as follows: NK-92 cytolytic assay against K-562 tumor target cells (flow cytometry). The settings on record: three days. On the procedure: (§1) Human NK cell line NK-92 was purchased from American Type Culture Collection (ATCC) and cultured in α-MEM Essential Medium (no ribonucleoside and deoxyribonucleoside) supplemented with 0.2 mM Myo-inositol, 0.02 mM Folic Acid, 0.1 mM β-mercaptoethanol, 1% of Non-essential Amino Acids, 1×L-Glutamax, 1% of Penicillin/Streptomycin, 12.5% of heat-inactivated Horse, and 12.5% of heat-inactivated Characterized Fetal Bovine Serum or FBS. The media was supplemented freshly with 200 IU/mL of IL-2 upon cell thawing for one passage and 100 IU/mL of IL-2 for cell expansion. Human tumor cell lines K-562 and Reh were purchased from ATCC and were cultured in RPM11640 Medium supplemented with 1% of Penicillin/Streptomycin and 10% of heat inactivated FBS. HEK293T/17 cells and HCT116 cells were cultured in Dulbecco's Modified Eagle's Medium (DMEM) High Glucose Medium supplemented with 1% of Penicillin/Streptomycin and 10% of FBS. All cell lines were maintained in 5% CO2, 37° C. incubator, except that NK-92 were maintained in 6.5% CO2 incubator at 37° C. All cell lines were maintained below 30 passages and tested regularly for mycoplasma infection using PCR.
NK-92 anti-tumor cytolysis function was assessed by flow cytometry-based analysis. Tumor target cells K-562 and Reh were labelled with cell tracker CFSE ([…]) or CMRA (5 μM) according to manufacturer's protocol at a maximum of one day before cytolysis experiment. On the experiment day, labelled tumor target cells were washed once with PBS and resuspend to desired cell concentration in complete cell media. NK-92 cells were washed and resuspended in complete media without cytokines to desired cell concentration. NK-92 cells and tumor target cells were plated at various effector: target (E:T) ratios with basal cell numbers at 50,000 cells per well in round-bottom 96-well plate and were co-cultured for 3 hours in 5% CO2, 37° C. incubator. After co-culture, cells were washed once with ice-cold PBS and stained with fixable viability dyes: Aqua (Invitrogen™) or UV Blue (Invitrogen™) or eFluor 780 (eBioscience Invitrogen™) at 1:2000 in dark for 20 mins at 4° C. Stained cells were washed twice with ice cold PBS and were fixed with 1% Paraformaldehyde (PFA) for 1 hour or 2% PFA for 30 mins in dark at 4° C. Flow cytometry sample acquisition was performed with BDO LSRFortessa™ with a UV laser at Flow Cytometry Core Facility, McGill University, and data was analyzed with FlowJo™ 10.7.1 and summarized with Prism™ 9 (GraphPad™). Calculation for % of specific cytolysis was followed by the equation: […]
On the technique in general: Flow cytometry measures light scatter and fluorescence of single cells or particles in a stream.

Assay [2] concerns NK-92 cells against Reh cells. In words: NK-92 cytolytic assay against NK resistant Reh target cells. As to conditions: 30 μM three days, IL-2 100 IU/mL, 3 h assay. How it is done: as §1, with “All cell lines were maintained below 30 passages and tested regularly for mycoplasma infection using PCR.” left out
NK-92 anti-tumor cytolysis function was assessed by flow cytometry-based analysis. […] Flow cytometry sample acquisition was performed with BDO LSRFortessa™ with a UV laser at Flow Cytometry Core Facility, McGill University, and data was analyzed with FlowJo™ 10.7.1 and summarized with Prism™ 9 (GraphPad™). […]

Assay [3] deals with NK-92 cells. The assay is described as follows: Lytic granule protein expression in NK-92 (flow cytometry, Western blot). How it is done: (§2) Total cell lysate was prepared with modified RIPA buffer (1M Tris-HCl (pH 7.5), 5M NaCl, 0.25% sodium deoxycholate, 10% NP-40 and 10 mM sodium fluoride) supplemented with ethylenediaminetetraacetic acid (EDTA)-free protease inhibitor (Roche™) and 2 mM sodium orthovanadate (Sigma-Aldrich™). Protein levels were quantified by bicinchoninic acid (BCA) assay. Protein lysate was separated by 10% SDS-PAGE and Western analysis was performed using primary antibodies listed in the tables below followed with horseradish peroxidase (HRP, 1:10,000, Jackson ImmunoResearch™) conjugated secondary antibodies.
NK-92 cells pre-treated with L598 (30 μM) or vehicle control were stimulated with K-562 tumor target cells [effector: target (E:T) at 1:1] or PMA/lonomycin (1 μg/mL each) or no-stimulation control with K-562 complete media, respectively. Anti-CD107a or LAMP-1 antibody (1:100, PE/Cy7 conjugated, clone H4A3, from BioLegend®) was added to cells at the start of degranulation assay. Golgi stop (containing Monensin, 1 μM) and Golgi plug (containing Brefeldin A, 4 μg/mL) were added to cells one hour after degranulation assay started and were kept until the end of the 6-hour-degranulation assay. Intracellular staining of GrB (1:40, PE conjugated, clone QA18A28, from BioLegend®) and PRF (1:40, FITC conjugated, clone B-D48, from BioLegend®) were performed with the Fixation/Permeabilization Solution Kit (BD® Biosciences) according to the manufacture's protocol. Cells were stained with fixable viability dye (1:2000) for 20 mins on ice and in dark, and blocked with FcBlock (1:20, diluted in 1× Perm/Wash buffer, Human truStain FcX from BioLegend®) for 5 mins at room temperature and in dark before intracellular staining. Cell gating and percentage of population quantification was based on no-stimulation control. For kinetics of degranulation assay, measurements were taken over three hours at 15 mins, 30 mins, 60 mins, 120 mins and 180 mins, with L598 (30 μM, three days) treated group and vehicle control group under the condition of tumor target cell K-562 stimulation (E: T at 1:1) or no stimulation. Intracellular cytolytic granule contents GrA, GrB and PRF were measured as mentioned previously.

Assay [4] deals with JAK/STAT signaling in NK-92 cells. The assay is described as follows: JAK/STAT signaling Western blot and IL-2 stimulation assay in NK-92. As to conditions: regular cell culture, inhibitor titration, three days. How it is done: as §2
For cytokine stimulation assay, NK-92 cells were pre-treated with L598 (30 μM) or vehicle control for three days. Before IL-2 stimulation, NK-92 cells were washed once with serum depleted cell media (no IL-2) and were starved for six hours in presence of L598 or vehicle control. After starvation, NK-92 cells were stimulated with IL-2 across a gradient concentration ranging from 0 to 90 IU/mL for 15 mins at 37° C. After incubation, cells were directly lysed with 2× concentrated TNE buffer and then boiled in 1× Laemmli Buffer to prepare cell lysates. Two independent experiments were performed.
A general note: Immunoblotting shows a protein as a band on a membrane.

KQ791: the “tumor cytolysis by NK-92 against K-562 with inhibitor titration” value in assay [1] (dosage increased up to 90 μM, various E:T ratios) is listed as “gradual increasing of tumor cytolysis”. The “NK-92 cytolysis towards NK resistant target cells Reh” value in assay [2] is listed as “had no effect”. Further, in assay [3] (gradual increasing concentration, three days), the “protein expression of perforin and granzyme B” value was “upregulated in a dosage dependent manner”. In addition, the “granzyme A protein expression” value in assay [3] (with or without inhibitor treatment) was “relatively stable”. Further, the “phosphorylation of STAT2 and STAT6” value in assay [4] is “relatively stable”. In addition, the “phosphorylation of STAT1, STAT3, STAT4 and STAT5” value in assay [4] (dosage dependent) is recorded as “increased phosphorylation”.

Take “TGF-β1: immune regulatory cytokine added to NK-92 culture”: the “effect of added TGF-β1 on NK-92 cytolysis against K-562” value in assay [1] (TGF-β 10 ng/mL, IL-2 media) was “significantly reduced”.

B1: IL-4: Th2 cytokine IL-4 added to NK-92 culture (protein, UniProt P05112 25-153, looked up)
Interleukin-4: HKCDITLQEIIKTLNSLTEQKTLCTELTVTDIFAASKNTTEKETFCRAATVLRQFYSHHEKDTRCLGATAQQFHRHKQLIRFLKRLDRNLWGLAGLNSCPVKEANQSTLENFLERLKTIMREKYSKCSS
Turning to B1, the “effect of added IL-4 on NK-92 cytolysis against K-562” value in assay [1] (IL-4 10 ng/mL, IL-2 media, with or without L598) was “did not reduce nor improve”.
